Source: BigSolDB 2.1

Nc1ccc(Br)nn1
solubility (mole fraction)
Conditions | in DMF | in acetone | in ethanol | in isopropanol | in methanol | in n-butanol | in n-propanol | in propylene glycol | in toluene | in water
278.15 K | 0.0126 | 0.00754 | 0.00216 | 0.00276 | 0.00108 | 0.00362 | 0.00316 | 0.00191 | 0.00989 | 2.57e-05
283.15 K | 0.0134 | 0.00832 | 0.00233 | 0.0031 | 0.00115 | 0.00405 | 0.00356 | 0.00205 | 0.0108 | 2.74e-05
288.15 K | 0.0144 | 0.0092 | 0.00251 | 0.00346 | 0.00123 | 0.00451 | 0.00401 | 0.0022 | 0.0118 | 2.94e-05
293.15 K | 0.0155 | 0.0102 | 0.0027 | 0.00384 | 0.00131 | 0.005 | 0.00446 | 0.0024 | 0.0129 | 3.18e-05
298.15 K | 0.0167 | 0.0113 | 0.0029 | 0.0043 | 0.00142 | 0.00556 | 0.00496 | 0.0026 | 0.0141 | 3.43e-05
303.15 K | 0.0179 | 0.0125 | 0.00314 | 0.00475 | 0.00152 | 0.0062 | 0.00557 | 0.00281 | 0.0154 | 3.7e-05
308.15 K | 0.0192 | 0.0138 | 0.0034 | 0.0053 | 0.00165 | 0.00687 | 0.00617 | 0.00305 | 0.0167 | 3.97e-05
313.15 K | 0.0206 | 0.0153 | 0.00366 | 0.00586 | 0.00178 | 0.00759 | 0.00683 | 0.0033 | 0.018 | 4.27e-05
318.15 K | 0.0223 | 0.0169 | 0.00399 | 0.00649 | 0.00192 | 0.00838 | 0.00758 | 0.00357 | 0.0196 | 4.6e-05
323.15 K | 0.0242 | 0.0188 | 0.0044 | 0.00721 | 0.00209 | 0.00933 | 0.0085 | 0.00391 | 0.0213 | 4.98e-05
